Structures are written as SMILES.

Assay [1] deals with T1, Adenosine receptor A1 (Cavia porcellus, UniProt P47745).
T1 sequence (P47745 whole entry): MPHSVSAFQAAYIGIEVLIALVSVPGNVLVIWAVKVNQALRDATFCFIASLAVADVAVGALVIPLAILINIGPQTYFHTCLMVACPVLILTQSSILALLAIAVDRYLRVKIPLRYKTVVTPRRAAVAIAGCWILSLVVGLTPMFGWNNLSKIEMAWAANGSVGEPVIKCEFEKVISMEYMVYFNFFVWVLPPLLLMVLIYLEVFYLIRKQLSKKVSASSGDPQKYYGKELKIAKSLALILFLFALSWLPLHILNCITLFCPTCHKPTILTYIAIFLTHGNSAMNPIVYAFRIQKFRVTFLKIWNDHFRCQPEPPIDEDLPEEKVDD
The experiment in a line: Binding affinity against adenosine A1 receptor using [3H]CPX in guinea pig DDT membrane; 166+/-75.

Assay [2] deals with T1, Adenosine receptor A1. Description: Binding affinity against adenosine A1 receptor using [3H]CPX in guinea pig DDT membrane; 5855+/-1208.
In assay [3] the target is T1, Adenosine receptor A1. Description: Binding affinity against adenosine A1 receptor using [3H]CPX in guinea pig DDT membrane; 158+/-21.
In assay [4] the target is T1, Adenosine receptor A1. The experiment in a line: Binding affinity against adenosine A1 receptor using [3H]CPX in guinea pig DDT membrane; 5497+/-180.
The target of assay [5] is T1, Adenosine receptor A1. Description: Binding affinity against adenosine A1 receptor using [3H]CPX in guinea pig DDT membrane.
The target in assay [6] is T1, Adenosine receptor A1. The experiment in a line: Binding affinity against adenosine A1 receptor using [3H]CPX in guinea pig DDT membrane; 614+/-78.
Assay [7] addresses T1, Adenosine receptor A1. The experiment in a line: Binding affinity against adenosine A1 receptor using [3H]CPX in guinea pig DDT membrane; 7292+/-3241.
Assay [8] has as its target T1, Adenosine receptor A1. The experiment in a line: Binding affinity against adenosine A1 receptor using [3H]CPX in guinea pig DDT membrane; 354+/-113.
Assay [9] deals with T1, Adenosine receptor A1. Description: Binding affinity against adenosine A1 receptor using [3H]CPX in guinea pig DDT membrane; 287+/-125.
In assay [10] the target is T1, Adenosine receptor A1. Description: Binding affinity against adenosine A1 receptor using [3H]CPX in guinea pig DDT membrane; 117+/-46.
The target in assay [11] is T1, Adenosine receptor A1. The experiment in a line: Binding affinity against adenosine A1 receptor using [3H]CPX in guinea pig DDT membrane; 1143+/-426.
The target in assay [12] is T1, Adenosine receptor A1. The experiment in a line: Binding affinity against adenosine A1 receptor using [3H]CPX in guinea pig DDT membrane; 894+/-659.
For assay [13], the target named is T1, Adenosine receptor A1. Description: Binding affinity against adenosine A1 receptor using [3H]CPX in guinea pig DDT membrane; 1571+/-245.
The target in assay [14] is T1, Adenosine receptor A1. The experiment in a line: Binding affinity against adenosine A1 receptor using [3H]-CPX in guinea pig DDT membrane; 4191+/-922.
Assay [15] addresses T1, Adenosine receptor A1. The experiment in a line: Binding affinity against adenosine A1 receptor using [3H]CPX in guinea pig DDT membrane; 338+/-98.
Assay [16] concerns the target T1, Adenosine receptor A1. Description: Binding affinity against adenosine A1 receptor using [3H]CPX in guinea pig DDT membrane; 604+/-241.
Assay [17] deals with T1, Adenosine receptor A1. Description: Binding affinity against adenosine A1 receptor using [3H]CPX in guinea pig DDT membrane; 343+/-137.
The target of assay [18] is T1, Adenosine receptor A1. Description: Binding affinity against adenosine A1 receptor using [3H]CPX in guinea pig DDT membrane; 1773+/-209.
The target in assay [19] is T1, Adenosine receptor A1. The experiment in a line: Binding affinity against adenosine A1 receptor using [3H]CPX in guinea pig DDT membrane; 503+/-262.
Assay [20] deals with T1, Adenosine receptor A1. The experiment in a line: Binding affinity against adenosine A1 receptor using [3H]CPX in guinea pig DDT membrane; 6250+/-1767.
Assay [21] addresses T1, Adenosine receptor A1. The experiment in a line: Binding affinity against adenosine A1 receptor using [3H]CPX in guinea pig DDT membrane; 1945+/-1316.
In assay [22] the target is T1, Adenosine receptor A1. The experiment in a line: Binding affinity against adenosine A1 receptor using [3H]CPX in guinea pig DDT membrane; 400+/-38.
Assay [23] has as its target T1, Adenosine receptor A1. Description: Binding affinity against adenosine A1 receptor using [3H]CPX in guinea pig DDT membrane; 1666+/-556.
Assay [24] addresses T1, Adenosine receptor A1. The experiment in a line: Binding affinity against adenosine A1 receptor using [3H]CPX in guinea pig DDT membrane; 506+/-111.
Assay [25] addresses T1, Adenosine receptor A1. Description: Binding affinity against adenosine A1 receptor using [3H]CPX in guinea pig DDT membrane; 913+/-517.
In assay [26] the target is T1, Adenosine receptor A1. Description: Binding affinity against adenosine A1 receptor using [3H]CPX in guinea pig DDT membrane; 473+/-329.

For orientation: Ki means the dissociation constant of the complex between target and ligand, obtained from inhibition or displacement. Lower therefore signals higher affinity. In turn, `O[C@@H]1[C@@H](CSc2nccs2)OC(n2cnc3c(NC4CCCC4)ncnc32)[C@@H]1O` (stereo partly specified) came in with an inhibition constant (Ki) on Adenosine receptor A1 [1] of 166 nM. Regarding `Cc1cccc(C)c1SC[C@H]1OC(n2cnc3c(NC4CCOC4)ncnc32)[C@H](O)[C@@H]1O` (stereo partly specified), affinity at Adenosine receptor A1 [2] was put at a Ki of 5850 nM.

`O[C@@H]1[C@@H](CSc2nccs2)OC(n2cnc3c(NC4CCOC4)ncnc32)[C@@H]1O` (stereo partly specified) came in with a Ki on Adenosine receptor A1 [3] of 158 nM. Take `O[C@@H]1[C@H](O)[C@@H](CSc2ccc(F)cc2F)O[C@H]1n1cnc2c(NC3CCOC3)ncnc21` (stereo partly specified): the Ki at Adenosine receptor A1 [4] worked out at 5500 nM; on Adenosine receptor A1 [5] it was 494 nM. Take `O[C@@H]1[C@@H](CSc2c(Cl)cccc2Cl)OC(n2cnc3c(NC4CCOC4)ncnc32)[C@@H]1O` (stereo partly specified): affinity on Adenosine receptor A1 [6] was put at a Ki of 614 nM. At Adenosine receptor A1 [5], `Cn1ccnc1SC[C@H]1OC(n2cnc3c(NC4CCCC4)ncnc32)[C@H](O)[C@@H]1O` (stereo partly specified) yielded a Ki of 1340 nM. This counts as single-digit micromolar. At Adenosine receptor A1 [7], `Cc1cccc(Cl)c1SC[C@H]1OC(n2cnc3c(NC4CCOC4)ncnc32)[C@H](O)[C@@H]1O` (stereo partly specified) showed a Ki of 7290 nM.

Turning to `COc1ccc2sc(SC[C@H]3OC(n4cnc5c(NC6CCCC6)ncnc54)[C@H](O)[C@@H]3O)nc2c1` (stereo partly specified), on Adenosine receptor A1 [8], the Ki worked out at 354 nM.

For `O[C@@H]1[C@@H](CSc2ccccc2F)OC(n2cnc3c(NC4CCCC4)ncnc32)[C@@H]1O` (stereo partly specified), the Ki at Adenosine receptor A1 [9] came to 287 nM. On Adenosine receptor A1 [10], `O[C@@H]1[C@@H](COc2ccccc2F)OC(n2cnc3c(NC4CCOC4)ncnc32)[C@@H]1O` (stereo partly specified) had a Ki of 117 nM. Turning to `Cc1ccccc1SC[C@H]1OC(n2cnc3c(NC4CCOC4)ncnc32)[C@H](O)[C@@H]1O` (stereo partly specified), at Adenosine receptor A1 [11], the affinity corresponds to a Ki of 1140 nM. The compound `O[C@@H]1[C@@H](CSc2ccccn2)OC(n2cnc3c(NC4CCOC4)ncnc32)[C@@H]1O` (stereo partly specified) registered a Ki at Adenosine receptor A1 [12] of 894 nM. In the case of `O[C@@H]1[C@@H](CSc2cccc(F)c2)OC(n2cnc3c(NC4CCOC4)ncnc32)[C@@H]1O` (stereo partly specified), the Ki on Adenosine receptor A1 [13] is 1570 nM. On Adenosine receptor A1 [5], `Cc1cc(COC[C@H]2OC(n3cnc4c(NC5CCOC5)ncnc43)[C@H](O)[C@@H]2O)no1` (stereo partly specified) registered a Ki of 192 nM. On to `Cn1ccnc1SC[C@H]1OC(n2cnc3c(NC4CCOC4)ncnc32)[C@H](O)[C@@H]1O` (stereo partly specified), for which the Ki at Adenosine receptor A1 [14] is 4190 nM. This lies in the single-digit micromolar range. With `O[C@@H]1[C@@H](CSc2ccccc2Cl)OC(n2cnc3c(NC4CCOC4)ncnc32)[C@@H]1O` (stereo partly specified), the Ki at Adenosine receptor A1 [15] came out at 338 nM. In the case of `O[C@@H]1[C@@H](COc2cccc(F)c2)OC(n2cnc3c(NC4CCOC4)ncnc32)[C@@H]1O` (stereo partly specified), the affinity at Adenosine receptor A1 [16], expressed as Ki, was 604 nM. That is a sub-micromolar value.

In turn, `O[C@@H]1[C@@H](COc2ccc(F)cc2)OC(n2cnc3c(NC4CCOC4)ncnc32)[C@@H]1O` (stereo partly specified) had a Ki at Adenosine receptor A1 [17] of 343 nM. With `O[C@@H]1[C@@H](COCc2ccccc2)OC(n2cnc3c(NC4CCOC4)ncnc32)[C@@H]1O` (stereo partly specified), at Adenosine receptor A1 [5], the Ki was 165 nM.

Turning to `Cc1csc(SC[C@H]2OC(n3cnc4c(NC5CCOC5)ncnc43)[C@H](O)[C@@H]2O)n1` (stereo partly specified), on Adenosine receptor A1 [5], the Ki was > 5000 nM. For `O[C@@H]1[C@@H](CSc2nc3ccccc3s2)OC(n2cnc3c(NC4CCCC4)ncnc32)[C@@H]1O` (stereo partly specified), the inhibition constant (Ki) on Adenosine receptor A1 [18] was 1770 nM. This counts as single-digit micromolar. At Adenosine receptor A1 [19], `Cc1ccccc1OC[C@H]1OC(n2cnc3c(NC4CCOC4)ncnc32)[C@H](O)[C@@H]1O` (stereo partly specified) yielded an inhibitory constant (Ki) of 503 nM. The compound `O[C@@H]1[C@@H](CSc2ccccc2C(F)(F)F)OC(n2cnc3c(NC4CCOC4)ncnc32)[C@@H]1O` (stereo partly specified) yielded an inhibition constant Ki on Adenosine receptor A1 [20] of 6250 nM. On Adenosine receptor A1 [21], `O[C@@H]1[C@@H](CSc2nc3ccc(Cl)cc3o2)OC(n2cnc3c(NC4CCOC4)ncnc32)[C@@H]1O` (stereo partly specified) came in with a Ki of 1940 nM. `O[C@@H]1[C@@H](CSc2nc3ccccc3s2)OC(n2cnc3c(NC4CCOC4)ncnc32)[C@@H]1O` (stereo partly specified): the Ki on Adenosine receptor A1 [22] is 400 nM. Take `COc1ccc2nc(SC[C@H]3OC(n4cnc5c(NC6CCCC6)ncnc54)[C@H](O)[C@@H]3O)sc2c1` (stereo partly specified): the Ki on Adenosine receptor A1 [23] came to 1670 nM. That is a single-digit micromolar value. Take `O[C@@H]1[C@H](O)[C@@H](CSc2ccccc2F)O[C@H]1n1cnc2c(NC3CCOC3)ncnc21` (stereo partly drawn) [N6-Tetrahydrofuranyl-9H-[5-deoxy-5-(2-fluorophenylthio)-beta-D-ribofuranosyl]adenine]: the affinity on Adenosine receptor A1 [24], expressed as Ki, was 506 nM. Turning to `O[C@@H]1[C@@H](CSc2ncccn2)OC(n2cnc3c(NC4CCOC4)ncnc32)[C@@H]1O` (stereo partly specified), the inhibitory constant (Ki) at Adenosine receptor A1 [25] was found to be 913 nM.

On Adenosine receptor A1 [26], `O[C@@H]1[C@@H](COc2ccccc2Cl)OC(n2cnc3c(NC4CCOC4)ncnc32)[C@@H]1O` (stereo partly specified) returned a Ki of 473 nM. In the case of `O[C@@H]1[C@@H](COc2ccccc2F)OC(n2cnc3c(NC4CCCC4)ncnc32)[C@@H]1O` (stereo partly specified), at Adenosine receptor A1 [5], the affinity, expressed as Ki, was 4390 nM. This lies in the single-digit micromolar range.
